We go through 25 compounds from patent US12006301B1, “And synthesis of dual 5-HT1A and 5-HT7 receptor ligands” (Florida A&M University, priority 2021, dated 2024).

Structures can show the parent of a compound that is named as a salt. Where two headings read alike, the source gives them in different places.

By melting point is commonly meant the temperature, or range, at which the solid turns liquid. Broadly, the inhibition is how much of the control response was suppressed.

The target of one series is D2R (Homo sapiens, UniProt P14416). As to the kind of experiment: NIMH-PDSP radioligand binding affinity, D2. The note with it: for inhibition at 10 µM: read-out: D2 binding, 50% threshold inhibition (MT).
In series [1] the target is serotonin transporter (SERT) (Homo sapiens, UniProt P31645). Description: NIMH-PDSP radioligand binding affinity, SERT. As to conditions: read-out: SERT binding, 50% threshold inhibition (MT).
Description: Binding affinities reported in Tables 1-3 were conducted by the National Institute of Mental Health Psychoactive Drug Screening Program (NIMH-PDSP).
The next series addresses D3R (Homo sapiens, UniProt P35462). Description: NIMH-PDSP radioligand binding affinity, D3.
Another series has as its target T1, 5-HT7AR (Homo sapiens, UniProt P34969).
T1 construct: expressed in transfected cells; host or cells: Human embryonic kidney (HEK) cells, transient transfection with PEI
Description: HEK-5-HT7A/cAMP adenylate cyclase functional assay, agonist effects. The format is cell-based.

For a further series, the target named is T2, 5-HT2CR (Homo sapiens, UniProt P28335).
T2 sequence (P28335 33-458): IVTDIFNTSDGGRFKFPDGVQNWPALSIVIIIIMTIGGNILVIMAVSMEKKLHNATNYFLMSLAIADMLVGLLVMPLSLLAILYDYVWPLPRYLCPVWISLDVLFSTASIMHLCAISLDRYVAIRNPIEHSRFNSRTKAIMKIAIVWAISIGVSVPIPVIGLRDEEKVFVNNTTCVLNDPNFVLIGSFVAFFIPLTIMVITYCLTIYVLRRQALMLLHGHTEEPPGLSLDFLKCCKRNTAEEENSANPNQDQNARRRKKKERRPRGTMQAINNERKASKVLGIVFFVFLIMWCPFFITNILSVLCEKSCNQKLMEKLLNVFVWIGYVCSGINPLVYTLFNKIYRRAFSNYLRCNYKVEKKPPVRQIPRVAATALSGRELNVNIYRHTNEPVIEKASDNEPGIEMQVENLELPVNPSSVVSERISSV
As to the kind of experiment: NIMH-PDSP radioligand binding affinity, 5-HT2C. The note with it: for inhibition at 10 µM: read-out: 5-HT2C binding, 50% threshold inhibition (MT).

A further series addresses T3, D4R (Homo sapiens, UniProt P21917).
T3 sequence (P21917 1-419): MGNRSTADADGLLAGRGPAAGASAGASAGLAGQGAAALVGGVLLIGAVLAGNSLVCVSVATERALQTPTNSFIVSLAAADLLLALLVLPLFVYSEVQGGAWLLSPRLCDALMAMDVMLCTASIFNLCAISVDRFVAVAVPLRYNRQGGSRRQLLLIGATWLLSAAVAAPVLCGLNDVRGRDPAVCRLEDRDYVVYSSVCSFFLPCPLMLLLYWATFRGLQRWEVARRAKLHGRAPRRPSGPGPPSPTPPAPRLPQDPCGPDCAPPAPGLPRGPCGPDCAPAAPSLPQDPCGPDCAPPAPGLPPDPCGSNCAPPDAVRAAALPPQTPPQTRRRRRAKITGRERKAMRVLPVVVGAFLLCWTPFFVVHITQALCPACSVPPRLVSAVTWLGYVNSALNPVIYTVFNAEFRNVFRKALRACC
Description: NIMH-PDSP radioligand binding affinity, D4. The note with it: read-out: D4 binding, 50% threshold inhibition (MT).

The conditions of series [2]: animal studies, cited from earlier work.
For series [3] the following is noted: animal models, rats, cited from earlier work.

serotonin transporter (SERT), sequence (P31645 whole entry, species assumed): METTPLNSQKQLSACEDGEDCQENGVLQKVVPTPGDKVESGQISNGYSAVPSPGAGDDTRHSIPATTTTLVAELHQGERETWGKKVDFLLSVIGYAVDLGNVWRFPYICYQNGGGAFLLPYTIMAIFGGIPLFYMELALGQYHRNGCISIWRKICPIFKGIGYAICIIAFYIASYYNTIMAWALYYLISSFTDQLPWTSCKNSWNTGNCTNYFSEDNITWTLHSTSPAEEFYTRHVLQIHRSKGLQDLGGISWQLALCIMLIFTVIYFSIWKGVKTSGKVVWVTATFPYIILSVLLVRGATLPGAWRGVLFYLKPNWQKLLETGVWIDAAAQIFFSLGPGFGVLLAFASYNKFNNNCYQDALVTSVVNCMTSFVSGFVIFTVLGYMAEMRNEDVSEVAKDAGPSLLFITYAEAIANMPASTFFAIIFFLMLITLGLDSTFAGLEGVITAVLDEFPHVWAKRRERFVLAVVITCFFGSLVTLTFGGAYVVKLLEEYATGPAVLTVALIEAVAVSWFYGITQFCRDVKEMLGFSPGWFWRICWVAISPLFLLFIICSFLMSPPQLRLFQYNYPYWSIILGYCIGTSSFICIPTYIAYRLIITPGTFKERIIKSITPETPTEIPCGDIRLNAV
D2R, sequence (P14416 whole entry): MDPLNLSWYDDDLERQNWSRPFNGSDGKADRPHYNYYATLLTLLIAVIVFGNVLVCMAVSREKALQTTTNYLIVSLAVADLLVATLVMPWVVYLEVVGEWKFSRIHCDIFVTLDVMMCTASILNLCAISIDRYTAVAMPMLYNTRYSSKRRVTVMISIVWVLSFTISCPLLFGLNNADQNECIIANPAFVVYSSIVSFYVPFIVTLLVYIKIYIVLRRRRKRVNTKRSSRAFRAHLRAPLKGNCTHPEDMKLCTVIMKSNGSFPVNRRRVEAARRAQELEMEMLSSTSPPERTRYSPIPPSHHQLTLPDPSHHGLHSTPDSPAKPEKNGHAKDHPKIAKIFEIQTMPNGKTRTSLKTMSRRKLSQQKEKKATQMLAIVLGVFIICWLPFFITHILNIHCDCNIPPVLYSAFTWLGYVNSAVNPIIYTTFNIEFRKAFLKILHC
D3R, sequence (P35462 whole entry): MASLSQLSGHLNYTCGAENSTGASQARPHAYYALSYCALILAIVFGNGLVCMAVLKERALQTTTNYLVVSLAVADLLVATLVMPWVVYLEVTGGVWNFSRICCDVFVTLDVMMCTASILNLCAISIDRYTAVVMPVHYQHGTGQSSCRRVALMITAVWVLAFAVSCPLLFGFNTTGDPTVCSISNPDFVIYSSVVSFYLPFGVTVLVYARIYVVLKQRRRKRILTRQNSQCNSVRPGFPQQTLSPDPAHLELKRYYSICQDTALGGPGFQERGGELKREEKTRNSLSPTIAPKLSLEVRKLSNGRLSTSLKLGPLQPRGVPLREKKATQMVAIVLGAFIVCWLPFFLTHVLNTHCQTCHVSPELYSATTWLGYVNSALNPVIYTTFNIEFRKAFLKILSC
T1 sequence (P34969 1-445 isoform P34969-2): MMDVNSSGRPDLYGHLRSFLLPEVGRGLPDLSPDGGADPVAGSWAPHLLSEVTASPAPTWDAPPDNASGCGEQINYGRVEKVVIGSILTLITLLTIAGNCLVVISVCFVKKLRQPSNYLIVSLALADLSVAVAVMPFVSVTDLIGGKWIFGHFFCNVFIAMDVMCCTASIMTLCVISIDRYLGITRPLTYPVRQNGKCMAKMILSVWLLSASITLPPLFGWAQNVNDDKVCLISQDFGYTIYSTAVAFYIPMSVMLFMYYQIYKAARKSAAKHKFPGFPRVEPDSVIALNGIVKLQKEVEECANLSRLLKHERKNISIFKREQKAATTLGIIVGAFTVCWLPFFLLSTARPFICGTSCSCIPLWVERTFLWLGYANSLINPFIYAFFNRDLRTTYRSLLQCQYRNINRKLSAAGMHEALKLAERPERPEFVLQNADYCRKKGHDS

`O=C1CCc2cc(OCCCN3CCN(c4ccccn4)CC3)ccc2N1` [Compound 9, 6-(3-(4-(pyridin-2-yl)piperazin-1-yl)propoxy)-3,4-dihydroquinolin-2(1H)-one] came in with a melting point of 154 to 155 °C.

In turn, `O=C1c2ccc(Cl)cc2CC1CCN1CCN(c2ccccn2)CC1` (centres unmarked) [Compound 15, 5-chloro-2-(2-(4-(pyridin-2-yl)piperazin-1-yl)ethyl)-2,3-dihydro-1H-inden-1-one] gave a melting point of 132 to 135 °C. In addition, at D2R, the “binding affinity at D2R (in words)” value was “lost” and the inhibition at 10 µM is under 50%. Besides, in series [1], the inhibition at 10 µM was under 50%. Moreover, the “binding affinity at D3R (in words)” value at D3R is given as “lost”. Also, the inhibition at 10 µM on D3R (read-out: D3 binding, 50% threshold inhibition (MT)) was under 50%.

Take `O=C1CCc2cc(OCCCN3CCN(c4ccccn4)CC3)ccc21` [Compound 11, 5-(3-(4-(pyridin-2-yl)piperazin-1-yl)propoxy)-2,3-dihydro-1H-inden-1-one]: the melting point was 103 to 104 °C. For the same compound, at D2R, the inhibition at 10 µM is under 50%. In addition, the inhibition at 10 µM in series [1] is under 50%.

Regarding `CC(=O)Nc1ccc(C(=O)CCCN2CCN(c3ccccn3)CC2)cc1` [Compound 3, N-(4-(4-(4-(pyridin-2-yl)piperazin-1-yl)butanoyl)phenyl) acetamide oxalate], in series [1], the inhibition at 10 µM was under 50%.

With `O=C1c2cc(Cl)c(Cl)cc2CC1CCN1CCN(c2ccccn2)CC1` (centres unmarked) [Compound 18, 5,6-Dichloro-2-(2-(4-(pyridin-2-yl)piperazin-1-yl)ethyl)-2,3-dihydro-1H-inden-1-one], the inhibition at 10 µM in series [1] is under 50%.

With `NCCc1c[nH]c2ccc(O)cc12` [Serotonin], the “agonist activity at 5-HT7AR (in words)” value on 5-HT7AR is “showed agonist properties”.

With `Nc1ccc(CCCCN2CCN(c3ccccn3)CC2)cc1` [Compound 6, 4-(4-(4-(pyridin-2-yl)piperazin-1-yl)butyl)aniline], the inhibition at 10 µM (in series [1]; at 5-HT2CR) was under 50% throughout.

For the compound `O=C1c2ccc(Cl)cc2CC1CCCN1CCN(c2ccccn2)CC1` (centres unmarked) [Compound 19, 5-chloro-2-(3-(4-(pyridin-2-yl)piperazin-1-yl)propyl)-2,3-dihydro-1H-inden-1-one], the inhibition at 10 µM at D2R was under 50%.

`O=C1CCc2cc(OCCCN3CCCN(c4ccccn4)CC3)ccc2N1` (as salt: oxalate) [Compound 10, 6-(3-(4-(pyridin-2-yl)-1,4-diazepan-1-yl)propoxy)-3,4-dihydroquinolin-2(1H)-one oxalate] gave a melting point of 190 to 192 °C.

On to `O=C1c2cc(Cl)ccc2CC1CCN1CCN(c2ccccn2)CC1` (centres unmarked) [Compound 17, 6-chloro-2-(2-(4-(pyridin-2-yl)piperazin-1-yl)ethyl)-2,3-dihydro-1H-inden-1-one], for which, in series [1], the inhibition at 10 µM is under 50%.

`OC1c2ccc(F)cc2CC1CCN1CCN(c2ccccn2)CC1` (centres unmarked) (as salt: hydroiodid) [Compound 14, 5-Fluoro-2-[2-(4-pyridin-2-yl-piperazin-1-yl)-ethyl]-indan-1-ol] showed a melting point of 174 to 175 °C.

In the case of `O=C1CCc2cc(OCCCN3CCCN(c4ccccn4)CC3)ccc2N1` [Compound 10, 6-(3-(4-(pyridin-2-yl)-1,4-diazepan-1-yl)propoxy)-3,4-dihydroquinolin-2(1H)-one oxalate], the inhibition at 10 µM at D4R was under 50%.

`O=C1CCc2cc(CCCCN3CCN(c4ccccn4)CC3)ccc2N1` [Compound 8, 6-(4-(4-(pyridin-2-yl)piperazin-1-yl)butyl)-3,4-dihydroquinolin-2(1H)-one] had a melting point of 144 to 145 °C.

With `OC1c2ccc(F)cc2CC1CCN1CCN(c2ccccn2)CC1` (centres unmarked) [Compound 14, 5-Fluoro-2-[2-(4-pyridin-2-yl-piperazin-1-yl)-ethyl]-indan-1-ol], the inhibition at 10 µM at 5-HT2CR was under 50%.

On to `CC(=O)Nc1ccc(C(=O)CCCN2CCN(c3ccccn3)CC2)cc1` (as salt: oxalate) [Compound 3, N-(4-(4-(4-(pyridin-2-yl)piperazin-1-yl)butanoyl)phenyl) acetamide oxalate], for which the melting point was in the range of 140 to 142 °C.

With `CC(=O)Nc1ccc(CCCCN2CCN(c3ccccn3)CC2)cc1` [Compound 4, N-(4-(4-(4-(pyridin-2-yl)piperazin-1-yl)butyl)phenyl)acetamide], the inhibition at 10 µM in series [1] is under 50%.

For `O=C1c2ccc(F)cc2CC1CCN1CCN(c2ccccn2)CC1` (centres unmarked) [Compound 13, 5-Fluoro-2-(2-(4-(pyridin-2-yl)piperazin-1-yl)ethyl)-2,3-dihydro-1H-inden-1-one], on D2R, the “binding affinity at D2R (in words)” value is “complete loss of binding affinity”. For the same compound, the inhibition at 10 µM (on D2R; in series [1]) was under 50% in each case. Also, the “5-HT2C binding, 50% threshold inhibition (MT)” value at 5-HT2CR (10 µM) is on record as “MT (key: MT = missed 50% threshold inhibition at 10 μM concentration)”.

`Clc1ccc2c(c1)CC(CCN1CCN(c3ccccn3)CC1)C2` (centres unmarked) (as salt: HCl) [Compound 16, 1-(2-(5-chloro-2,3-dihydro-1H-inden-2-yl)ethyl)-4-(pyridin-2-yl)piperazine] registered a melting point of 267 to 270 °C.

For the compound `Clc1ccc2c(c1)CC(CCN1CCN(c3ccccn3)CC1)C2` (centres unmarked) [Compound 16, 1-(2-(5-chloro-2,3-dihydro-1H-inden-2-yl)ethyl)-4-(pyridin-2-yl)piperazine], the inhibition at 10 µM in series [1] is under 50%.

Turning to `O=C1c2ccc(Cl)cc2CC1CCCCN1CCN(c2ccccn2)CC1` (centres unmarked) (as salt: HCl) [Compound 20, 5-chloro-2-(4-(4-(pyridin-2-yl)piperazin-1-yl)butyl)-2,3-dihydro-1H-inden-1-one], the melting point was 233 to 234 °C.

Regarding `O=C1CCc2cc(C(=O)CCCN3CCN(c4ccccn4)CC3)ccc2N1` [Compound 7, 6-(4-(4-(pyridin-2-yl)piperazin-1-yl)butanoyl)-3,4-dihydroquinolin-2(1H)-one], the melting point lay within 192 to 193 °C. Further, in [1], the inhibition at 10 µM was under 50%. Moreover, the inhibition at 10 µM on 5-HT2CR was under 50%.

For `O=C1c2ccc(Cl)cc2CC1CCCN1CCN(c2ccccn2)CC1` (centres unmarked) [drawing 43], in series [1], the inhibition at 10 µM is under 50%.

`O=C(CCCN1CCN(c2ccccn2)CC1)c1ccc2c(c1)CCC2` [Compound 12, 1-(2,3-Dihydro-1H-inden-5-yl)-4-(4-(pyridin-2-yl)piperazin-1-yl)butan-1-one] displayed a melting point of 74 to 75 °C. Also, the inhibition at 10 µM in series [1] is under 50%.

`Fc1ccc(CCCCN2CCN(c3ccccn3)CC2)cc1` [Compound 2, 1-(4-(4-fluorophenyl)butyl)-4-(pyridin-2-yl)piperazine]: the “antipsychotic-like activity (in words)” value in series [2] (listed as SYA 16263) was “moderate antipsychotic-like activity”; in series [2] (listed as SYA16263), “antipsychotic-like properties”. The “catalepsy / motoric side effects (in words)” value in series [3] is reported as “low propensity to cause catalepsy”; in [3] (listed as SYA 16263) it was “low propensity to cause motoric side effects”; in series [3] (listed as SYA16263), “absence of catalepsy”.

The compound `Nc1ccc(C(=O)CCCN2CCN(c3ccccn3)CC2)cc1` [Compound 5, 1-(4-aminophenyl)-4-(4-(pyridin-2-yl)piperazin-1-yl)butan-1-one] had a melting point of 203 to 204 °C. In addition, the inhibition at 10 µM in series [1] is under 50%.
